Data: US20130172294A1, “Treatment with VB-201” (Vascular Biogenics Ltd., priority 2010, published 2013)
Where two headings read alike, the source gives them in different places.

Columns and labels:
[1] = Safety and tolerability of single dose (Example 1); assay type: in vivo, human; conditions: single oral dose 1-50 mg
Excerpt: Safety and tolerability of VB-201 was judged by evaluating the incidence of abnormal findings in the following measurements: vital signs: systolic and diastolic blood pressure, heart rate, respiratory rate, body temperature; physical examination; 12-lead electrocardiogram; laboratory tests of blood samples for: complete blood count, prothrombin time/partial thromboplastin time, LDL- and HDL-cholesterol, total cholesterol, triglycerides, glucose, blood urea nitrogen, sodium, potassium, creatinine, calcium, phosphorus, creatinine phosphokinase, lactate dehydrogenase, aspartate transaminase, alanine transaminase, γ-glutamyl transferase, alkaline phosphatase, protein, albumin, total bilirubin, total IgM and IgG antibodies, interleukin-12/23 p40, tumor necrosis factor-α, and interleukin-6, as well as routine urinalysis; and all adverse events, whether or not considered serious, and whether or not considered related to the investigational agent, according to the criteria for Good Clinical Practice. Treatment-emergent adverse events were defined as any adverse event that started on or after administration of the first dose of VB-201, and no more than 30 days after administration of the last dose, or are ongoing at the time of the first dose and worsened in severity or frequency during treatment. […] All subjects were healthy male volunteers. Five cohorts of six subjects each received a single dose of 1, 3, 10, 30 or 50 mg VB-201. 10 subjects received a placebo. The VB-201 was formulated in gelatin capsules enterocoated with Eudragit®.

[2] = system: adjuvant-induced arthritis; conditions: in vivo animal model; cited from earlier work
[3] = Repeated daily dose pharmacokinetics, 40 and 80 mg (Example 4); assay type: in vivo, human
Experimental: Determination of VB-201 concentrations in plasma was performed using an HPLC-MS/MS (high performance liquid chromatography with tandem mass spectrometric detection) assay. Calibration was for a range of from 5 to 500 ng/ml for low doses and from 50 to 5000 ng/ml for high doses. Pharmacokinetic parameters were estimated by using a non-compartmental method, except for the AUC (area under curve), which was determined using a (log-) trapezoidal rule as the area above the previous trough level. […] The subjects were all healthy volunteers. […] 6 subjects received a placebo. The VB-201 was formulated in non-enterocoated capsules. Blood was collected for pharmacokinetic evaluation on day 1 (40 mg cohort) and on day 14 (40 and 80 mg cohorts).

[4] = system: Human monocytes (CD14+ cells)
Experimental: Human monocytes (CD14^+ cells) were isolated from whole blood of healthy donors. Following PBMC (peripheral blood mononuclear cell) separation from whole blood using Ficoll-Paque and leucosep tubes, CD14^+ cells were separated using specific CD14 micro beads (Miltenyi Biotech). Purity of the CD14^+ population was validated using specific monoclonal CD14 antibody by FACS analysis. For chemoattractant, RANTES (100 ng/ml), MIP-1α (macrophage inflammatory protein-1a; 50 ng/ml), MCP-1 (monocyte chemotactic protein-1; 50 ng/ml) or MCP-3 (50 ng/ml) were dissolved in 2% fetal bovine serum/RPMI-1640 and placed at the lower chamber of QCM™ 24-well migration assay plate (Corning-Costar). CD14+ cells were pre-incubated for 30 minutes with solvent (1% ethanol/PBS) or VB-201 at 8 μM (or different concentrations ranging between 1.7-17 μM, not shown). Migration assay was conducted by seeding 300,000 treated cells in the upper chamber, followed by incubated for 3-4 hours, after which the number of migrated cells was determined by FACS (fluorescence activated cell sorting).
VB-201 was tested in vitro as described hereinabove for possible effects on migration of human primary monocytes towards inflammatory chemokines using a trans-well assay. For a broad analysis, several chemoattractants which serve as ligands for different chemokine receptors were used. Two assays were performed in triplicates for each chemoattractant.

interleukin-23 (IL-23) = experiment: Plasma cytokine assay, IL-23 (Example 5); assay type: in vivo, human
Experimental: Acquisition of samples was performed using FacsCalibur (Becton Dickinson).

interferon-γ (IFN-γ) = system: interferon-γ (IFN-γ)
Experimental: Plasma levels of interleukin-23 (IL-23) and interferon-γ (IFN-γ) were determined using the FlowCytomix human simplex kits (Bender Medsystems) for the aforementioned cytokines according to the manufacturer instructions. Acquisition of samples was performed using FacsCalibur (Becton Dickinson). Results were analyzed with the FlowCytomix Pro 2.2 Software.
Healthy subjects were treated once a day with 40 mg or 80 mg of VB-201, according to the procedures described in Example 4. Plasma was collected on day 0 (pre-dosing), on day 14 after dosing, and on day 28 after dosing (when administration lasted 28 days). Plasma levels of interleukin-23 (IL-23) and interferon-γ (IFN-γ) were determined as described hereinabove.

AUC(0-infinity) ([3]; daily 40 mg, Day 1): 31952 ± 9680 ng·h/mL | Cl/F (0-24) ([3]; daily 40 mg, Day 1): 2.837 ± 1.064 L/h | Cl/F(0-infinity) ([3]; daily 40 mg, Day 1): 1.346 ± 0.401 L/h | Cmax ([3]; daily 40 mg, Day 1): 923.7 ± 287.4 ng/mL | Ke ([3]; daily 40 mg, Day 1): 0.0305 ± 0.0124 h⁻¹ | MTT (0-24) ([3]; daily 40 mg, Day 1): 12.0 ± 0.5 h | MTT(0-infinity) ([3]; daily 40 mg, Day 1): 41.3 ± 17.6 h | T1/2 ([3]; daily 40 mg, Day 1): 26.8 ± 13.0 h | Tmax ([3]; daily 40 mg, Day 1): 8.7 ± 3.8 h | AUC(0-24) ([3]; daily 40 mg, Day 14): 47393 ± 16792 ng·h/mL | AUC(0-infinity) ([3]; daily 40 mg, Day 14): 117013 ± 55816 ng·h/mL | Cl/F (0-24) ([3]; daily 40 mg, Day 14): 0.970 ± 0.436 L/h | Cl/F(0-infinity) ([3]; daily 40 mg, Day 14): 0.405 ± 0.172 L/h | Cmax ([3]; daily 40 mg, Day 14): 2544.6 ± 800.5 ng/mL | Ke ([3]; daily 40 mg, Day 14): 0.0270 ± 0.0111 h⁻¹ | MTT (0-24) ([3]; daily 40 mg, Day 14): 11.1 ± 0.4 h | MTT(0-infinity) ([3]; daily 40 mg, Day 14): 45.2 ± 18.8 h | T1/2 ([3]; daily 40 mg, Day 14): 30.2 ± 13.6 h | Tmax ([3]; daily 40 mg, Day 14): 4.2 ± 2.0 h | AUC(0-24) ([3]; daily 80 mg, Day 14): 89779 ± 21751 ng·h/mL | AUC(0-infinity) ([3]; daily 80 mg, Day 14): 206918 ± 62474 ng·h/mL | Cl/F (0-24) ([3]; daily 80 mg, Day 14): 0.941 ± 0.247 L/h | Cl/F(0-infinity) ([3]; daily 80 mg, Day 14): 0.422 ± 0.144 L/h | Cmax ([3]; daily 80 mg, Day 14): 4820.2 ± 930.3 ng/mL | Ke ([3]; daily 80 mg, Day 14): 0.0251 ± 0.0048 h⁻¹ | MTT (0-24) ([3]; daily 80 mg, Day 14): 11.0 ± 0.4 h | MTT(0-infinity) ([3]; daily 80 mg, Day 14): 41.5 ± 7.8 h | T1/2 ([3]; daily 80 mg, Day 14): 28.5 ± 5.8 h | Tmax ([3]; daily 80 mg, Day 14): 6.0 ± 1.1 h
Structure (SMILES): CCCCCCCCCCCCCCCCOCC(COP(=O)([O-])OCC[N+](C)(C)C)OCCCCC(=O)O (stereo not drawn) [VB-201, 1-hexadecyl-2-(4′-carboxybutyl)-glycerol-3-phosphocholine]
electrocardiogram findings [1]: None of the subjects which received VB-201 had clinically significant electrocardiogram findings | safety profile [1]: comparable safety profile of VB-201 to a placebo | serious adverse events [1]: No serious adverse events occurred | efficacy in adjuvant-induced arthritis [2]: effective | migration of human primary monocytes towards MCP-1 ([4]; 8 μM VB-201, 30 min pre-treatment, MCP-1 50 ng/ml): significantly (P<0.05) reduced | migration of human primary monocytes towards MCP-3 ([4]; 8 μM VB-201, 30 min pre-treatment, MCP-3 50 ng/ml): significantly (P<0.05) reduced | migration of human primary monocytes towards MIP-1α ([4]; 8 μM VB-201, 30 min pre-treatment, MIP-1α 50 ng/ml): significantly (P<0.05) reduced | migration of human primary monocytes towards RANTES ([4]; 8 μM VB-201, 30 min pre-treatment, RANTES 100 ng/ml): significantly (P<0.05) reduced | dose dependence of inhibition of monocyte migration ([4]; in vitro, 1.7-17 μM): dose-dependent | IL-23 plasma levels (interleukin-23 (IL-23); 40 mg per day, 14 days, both subjects with detectable pre-dose IL-23): considerably reduced | IL-23 plasma levels (interleukin-23 (IL-23); 80 mg per day, 28 days, all three subjects): considerably reduced | IFN-γ plasma levels (interferon-γ (IFN-γ); 40 mg per day, 14 days, one subject (second had no detectable levels)): considerably reduced | IFN-γ plasma levels (interferon-γ (IFN-γ); 80 mg per day, 28 days, two subjects (third had no detectable levels)): considerably reduced
